The subject of one assay is COX II enzyme. The following applies: in words, literature; cited from earlier work.
A further assay has as its target COX II. In words: Assay for COX II activity (PGE2 ELISA, recombinant enzyme). The format is biochemical, human or murine. Particulars: arachidonic acid (10 μM), pre-incubated 10-20 minutes, pH 8.0; read-out: COX II ID50. The procedure: (§1) A 2.0 kb fragment containing the coding region of either human or murine COX-I or human or murine COX-II was cloned into a BamH1 site of the baculovirus transfer vector pVL1393 (Invitrogen) to generate the baculovirus transfer vectors for COX-I and COX-II in a manner similar to the method of D. R. O'Reilly et al (Baculovirus Expression Vectors: A Laboratory Manual (1992)). Recombinant baculoviruses were isolated by transfecting 4 μg of baculovirus transfer vector DNA into SF9 insect cells (2×10e8) along with 200 ng of linearized baculovirus plasmid DNA by the calcium phosphate method. See M. D. Summers and G. E. Smith, A Manual of Methods for Baculovirus Vectors and Insect Cell Culture Procedures. Texas Agric. Exp. Station Bull. 1555 (1987). Recombinant viruses were purified by three rounds of plaque purification and high titer (10E7-10E8 pfu/ml) stocks of virus were prepared. For large scale production, SF9 insect cells were infected in 10 liter fermentors (0.5×10^6 /ml) with the recombinant baculovirus stock such that the multiplicity of infection was 0.1. […]
(§2) COX activity was assayed as PGE2 formed/μg protein/time using an ELISA to detect the prostaglandin released. […] The PGE2 formed was measured by standard ELISA technology (Cayman Chemical).
For orientation: ELISA stands for enzyme-linked immunosorbent assay.

For a further assay, the target named is COX I. Description: Assay for COX I activity (PGE2 ELISA, recombinant enzyme). The format is biochemical, human or murine. Particulars: arachidonic acid (10 μM), pre-incubated 10-20 minutes, pH 8.0; read-out: COX I ID50. As to the method: as §1, §2

The text below walks through data of patent US5576339A, “Pyridyl substituted cyclopentadienes for the treatment of inflamation” (priority 1995, dated 1996).

Each structure is given as a SMILES string.

On to `COc1ccc2cc(CC(=O)O)ccc2c1` [6-methoxy-2-napthylacetic acid], for which the “inhibition of the COX II enzyme” value in the assay on COX II enzyme is “selectively inhibit the COX II enzyme”. On to `CC1(C)C=C(c2ccc(F)cc2)C(c2ccc(S(C)(=O)=O)cc2)=C1` [Example 1, 1-Methylsulfonyl-4-[1,1-dimethyl-4-(4-fluorophenyl)cyclopenta-2,4-dien-3-yl]benzene], for which the IC50 at COX II came to 50 nM; on COX I, 3680 nM. For `CS(=O)(=O)Nc1ccc([N+](=O)[O-])cc1OC1CCCCC1` [N-(2-cyclohexyloxy-4-nitrophenyl)methanesulfonamide], the “inhibition of the COX II enzyme” value in the assay on COX II enzyme is “inhibits the COX II enzyme”.
